Our source for the IC50 and EC50 values is patent publication US20110082182A1, “THERAPEUTIC ANTIVIRAL PEPTIDES” (INTERMUNE, INC., priority 2009, published 2011).

Molecules are shown by their SMILES.

The IC50 is the concentration at which inhibition is half-maximal. High values mean lower potency, low ones higher potency. What is called EC50 is the midpoint of the concentration-response curve.

For assay [1], the target named is T1, NS3/NS4A-2 (full-length HCV NS3 protease) (Hepatitis C virus genotype 1a, UniProt P27958).
T1 construct: Recombinant E. coli or Baculovirus full-length NS3 was diluted to 3.33 μM with assay buffer; made in house; host or cells: E. coli or baculovirus (BV) expression
T1 sequence (P27958 1027-1657): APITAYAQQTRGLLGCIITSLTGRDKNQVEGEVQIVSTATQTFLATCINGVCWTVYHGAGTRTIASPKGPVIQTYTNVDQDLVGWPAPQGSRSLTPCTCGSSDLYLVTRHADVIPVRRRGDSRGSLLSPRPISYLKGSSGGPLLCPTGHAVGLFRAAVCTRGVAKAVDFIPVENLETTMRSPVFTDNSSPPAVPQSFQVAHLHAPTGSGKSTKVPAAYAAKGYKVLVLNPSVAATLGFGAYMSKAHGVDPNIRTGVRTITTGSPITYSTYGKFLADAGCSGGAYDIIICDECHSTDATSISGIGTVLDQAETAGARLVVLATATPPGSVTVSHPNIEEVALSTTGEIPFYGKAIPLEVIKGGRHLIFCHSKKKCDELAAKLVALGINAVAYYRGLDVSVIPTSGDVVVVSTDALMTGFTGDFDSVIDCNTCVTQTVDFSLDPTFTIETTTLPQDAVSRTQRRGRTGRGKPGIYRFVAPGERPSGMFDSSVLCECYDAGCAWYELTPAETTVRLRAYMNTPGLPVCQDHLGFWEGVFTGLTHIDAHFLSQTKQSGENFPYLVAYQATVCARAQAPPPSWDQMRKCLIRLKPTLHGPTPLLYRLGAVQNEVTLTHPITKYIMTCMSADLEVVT
Briefly: NS3 Inhibition Assay (NS3-NS4 protease assay, RETS1 substrate, fluorescence kinetic read). Format: biochemical. To be noted: NS3/NS4A-2 protease. The protocol:
NS3 Complex Formation with NS4A-2.
Recombinant E. coli or Baculovirus full-length NS3 was diluted to 3.33 μM with assay buffer and the material was transferred to an eppendorf tube and placed in a water bath in a 4° C. refrigerator. The appropriate amount of NS4A-2 diluted to 8.3 mM in assay buffer was added to an equal the volume of NS3 above (conversion factor—3.8 mg/272 μL assay buffer). The material was transferred to an eppendorf tube and placed in water bath in a 4° C. refrigerator.
After equilibration to 4° C., equal volumes of NS3 and NS4A-2 solutions were combined in an eppendorf tube, mixed gently with a manual pipettor, and incubated for 15 minutes in the 4° C. water bath. Final concentrations in the mixture are 1.67 μM NS3, 4.15 mM NS4A-2 (2485-fold molar excess NS4A-2).
After 15 minutes at 4° C., the NS3/NS4A-2 eppendorf tube was removed and placed in a room temperature water bath for 10 minutes. NS3/NS4A-2 was aliquoted at appropriate volumes and stored at −80° C. (E. coli NS3 run at 2 nM in assay, aliquot at 25 μL. BV NS3 run at 3 nM in assay, aliquot at 30 μL).
Step a. Sample compounds were dissolved to 10 mM in DMSO then diluted to 2.5 mM (1:4) in DMSO. Typically, compounds were added to an assay plate at 2.5 mM concentration, yielding upon dilution a starting concentration of 50 μM in the assay inhibition curve. Compounds were serial diluted in assay buffer to provide test solutions at lower concentrations.
Step 1. The E. coli. NS3/NS4A-2 was diluted to 4 nM NS3 (1:417.5 of 1.67 μM stock−18 μL 1.67 μM stock+7497 μL assay buffer). […]
The plate was read in kinetic mode on the Molecular Devices SpectraMax Gemini XS plate reader. Reader settings: Read time: 30 minutes, Interval: 36 seconds, Reads: 51, Excitation λ: 335 nm, Emission λ: 495 nm, cutoff: 475 nm, Automix: off, Calibrate: once, PMT: high, Reads/well: 6, Vmax pts: 21 or 28/51 depending on length of linearity of reaction
IC50s are determined using a four parameter curve fit equation, and converted to Ki's using the following Km's: […]

The test system of assay [2] is HCV sub-genomic replicon (I377/NS3-3') in HuH-7 hepatoma cells (GS4.3). Briefly: Quantitation by ELISA of NPTII in the HCV sub-genomic replicon, GS4.3. To be noted: Hepatitis C virus, GS4.3 replicon cells, 72 h. Format: cell-based. An excerpt:
Quantitation by ELISA of the Selectable Marker Protein, Neomycin Phosphotransferase II (NPTII) in the HCV Sub-Genomic Replicon, GS4.3
The HCV sub-genomic replicon (I377/NS3-3′, accession No. AJ242652), stably maintained in HuH-7 hepatoma cells, was created by Lohmann et al. Science 285: 110-113 (1999). The replicon-containing cell culture, designated GS4.3, was obtained from Dr. Christoph Seeger of the Institute for Cancer Research, Fox Chase Cancer Center, Philadelphia, Pa.
GS4.3 cells were maintained at 37° C., 5%CO2, in DMEM (Gibco 11965-092) supplemented with L-glutamine 200 mM (100×) (Gibco25030-081), non-essential amino acids (NEAA) (Biowhittaker 13-114E), heat-inactivated (HI) Fetal Bovine Serum (FBS) (Hyclone SH3007.03) and 750 μg/mL geneticin (G418) (Gibco 10131-035). Cells were sub-divided 1:3 or 4 every 2-3 days.
24 h prior to the assay, GS4.3 cells were collected, counted, and plated in 96-well plates (Costar 3585) at 7500 cells/well in 100 μL standard maintenance medium (above) and incubated in the conditions above. To initiate the assay, culture medium was removed, cells were washed once with PBS (Gibco 10010-023) and 90 μl Assay Medium (DMEM, L-glutamine, NEAA, 10% HI FBS, no G418) was added. Inhibitors were made as a 10× stock in Assay Medium, (3-fold dilutions from 10 μM to 56 pM final concentration, final DMSO concentration 1%), 10 μL were added to duplicate wells, plates were rocked to mix, and incubated as above for 72 h.
An NPTII Elisa kit was obtained from AGDIA, Inc. (Compound direct ELISA test system for Neomycin Phosphotransferase II, PSP 73000/4800). Manufacturer's instructions were followed, with some modifications. 10× PEB-1 lysis buffer was made up to include 500 μM PMSF (Sigma P7626, 50 mM stock in isopropanol). […] Plates were read at 450 nm on a Molecular Devices Versamax plate reader.
Inhibitor effect was expressed as a percentage of DMSO-treated control signal, and inhibition curves were calculated using a 4-parameter equation: y=A+4B−A)/(1+((C/x)̂C))), where C is half-maximal activity or EC50.
On the technique in general: ELISA stands for enzyme-linked immunosorbent assay.

In assay [1], `CC[C@@H]1C[C@@]12NC(=O)[C@@H]1C[C@H](CN1C(=O)[C@@H](NC(=O)OC(C)(C)C)C(C)(C)C)Oc1nc3ccccc3n1C/C=C\CCCC1(CC1)S(=O)(=O)NC2=O` [Compound 1] yielded an IC50 below 100 nM. Also, in assay [2], the EC50 is above 1000 nM.

In assay [1], `CC[C@@H]1C[C@@]12NC(=O)[C@@H]1C[C@H](CN1C(=O)[C@@H](NC(=O)OC(C)(C)C)C(C)(C)C)Oc1nc3ccccc3n1CCC/C=C\CCC1(CC1)S(=O)(=O)NC2=O` [Compound 5] yielded a half-maximal inhibitory concentration (IC50) below 100 nM. In assay [2], this compound had an EC50 above 1000 nM.

In the case of `CC[C@@H]1C[C@@]12NC(=O)[C@@H]1C[C@H](CN1C(=O)[C@@H](NC(=O)OC(C)(C)C)C(C)(C)C)Oc1nc3ccccc3n1CCCCCCCC1(CC1)S(=O)(=O)NC2=O` [Compound 6], the IC50 in assay [1] was in the range of 100 to 1000 nM. The compound also showed an EC50 in assay [2] above 1000 nM.
